Consider three compounds from article PMC4685510, “A Cell Biologist’s Field Guide to Aurora Kinase Inhibitors” (Frontiers in Oncology, 2015).

Holding throughout (experiment): biochemical
Common to all, as to assay type: biochemical

In test [1] the target is 363 human kinases (including Aurora A/B/C) (Homo sapiens, UniProt Q16288). Conditions: TRKC; for remaining activity at 0.1 µM: 100 nM.
Source text: (§1) However, the Aurora A/B selectivity ratios derived from our in vitro and in vivo data can be compared to prioritize inhibitors.
Test [2] addresses 363 human kinases (including Aurora A/B/C) (Homo sapiens, UniProt Q86V86). Conditions: PIM3; for remaining activity at 0.5 µM / remaining activity at 0.1 µM: read-out: % Enzyme Activity (relative to DMSO controls); for remaining activity at 0.1 µM: 100 nM.
Source text: as §1
Test [3] deals with T1, 363 human kinases (including Aurora A/B/C) (Homo sapiens, UniProt Q92630).
T1 sequence (Q92630 1-601): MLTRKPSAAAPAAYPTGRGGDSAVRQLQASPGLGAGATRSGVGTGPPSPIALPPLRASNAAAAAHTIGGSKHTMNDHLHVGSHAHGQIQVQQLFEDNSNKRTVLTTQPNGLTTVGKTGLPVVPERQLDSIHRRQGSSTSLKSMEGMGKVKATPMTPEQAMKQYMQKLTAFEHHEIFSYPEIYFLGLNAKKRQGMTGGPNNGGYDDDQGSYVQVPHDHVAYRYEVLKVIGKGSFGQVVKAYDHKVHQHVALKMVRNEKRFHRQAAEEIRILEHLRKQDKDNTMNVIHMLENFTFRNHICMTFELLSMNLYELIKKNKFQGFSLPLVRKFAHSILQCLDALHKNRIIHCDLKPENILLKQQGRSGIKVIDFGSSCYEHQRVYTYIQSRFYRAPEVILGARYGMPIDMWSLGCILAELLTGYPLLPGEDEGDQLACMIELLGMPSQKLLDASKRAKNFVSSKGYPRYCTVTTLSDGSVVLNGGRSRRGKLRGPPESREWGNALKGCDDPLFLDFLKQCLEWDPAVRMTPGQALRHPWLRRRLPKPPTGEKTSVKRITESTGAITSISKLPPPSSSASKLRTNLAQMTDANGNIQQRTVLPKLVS
The conditions noted are these: DYRK2, [ATP] 5 µM; for remaining activity at 0.5 µM / remaining activity at 0.1 µM: read-out: % Enzyme Activity (relative to DMSO controls); for remaining activity at 0.1 µM: 100 nM.
Source text: as §1

Test [4] concerns the target T2, 363 human kinases (including Aurora A/B/C) (Homo sapiens, UniProt O14965).
T2 sequence (O14965 1-403): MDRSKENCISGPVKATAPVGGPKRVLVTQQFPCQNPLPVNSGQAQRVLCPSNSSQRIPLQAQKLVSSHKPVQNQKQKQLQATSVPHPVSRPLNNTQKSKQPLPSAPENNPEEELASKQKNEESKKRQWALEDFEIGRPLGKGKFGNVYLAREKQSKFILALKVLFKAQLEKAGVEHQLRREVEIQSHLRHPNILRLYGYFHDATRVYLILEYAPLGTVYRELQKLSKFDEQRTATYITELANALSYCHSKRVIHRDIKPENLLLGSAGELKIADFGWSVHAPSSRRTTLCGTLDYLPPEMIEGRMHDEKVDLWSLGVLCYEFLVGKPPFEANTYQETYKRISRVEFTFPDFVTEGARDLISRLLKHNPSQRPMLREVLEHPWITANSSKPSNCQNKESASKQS
Conditions: [ATP] 2.5 µM; for remaining activity at 0.1 µM: 100 nM.
Source text: as §1

In test [5] the target is 363 human kinases (including Aurora A/B/C) (Homo sapiens, UniProt P49759). Conditions: CLK1, [ATP] 2.5 µM; for remaining activity at 0.5 µM / remaining activity at 0.1 µM: read-out: % Enzyme Activity (relative to DMSO controls); for remaining activity at 0.1 µM: 100 nM.
363 human kinases (including Aurora A/B/C) (Homo sapiens, UniProt P49759), sequence (P49759 whole entry): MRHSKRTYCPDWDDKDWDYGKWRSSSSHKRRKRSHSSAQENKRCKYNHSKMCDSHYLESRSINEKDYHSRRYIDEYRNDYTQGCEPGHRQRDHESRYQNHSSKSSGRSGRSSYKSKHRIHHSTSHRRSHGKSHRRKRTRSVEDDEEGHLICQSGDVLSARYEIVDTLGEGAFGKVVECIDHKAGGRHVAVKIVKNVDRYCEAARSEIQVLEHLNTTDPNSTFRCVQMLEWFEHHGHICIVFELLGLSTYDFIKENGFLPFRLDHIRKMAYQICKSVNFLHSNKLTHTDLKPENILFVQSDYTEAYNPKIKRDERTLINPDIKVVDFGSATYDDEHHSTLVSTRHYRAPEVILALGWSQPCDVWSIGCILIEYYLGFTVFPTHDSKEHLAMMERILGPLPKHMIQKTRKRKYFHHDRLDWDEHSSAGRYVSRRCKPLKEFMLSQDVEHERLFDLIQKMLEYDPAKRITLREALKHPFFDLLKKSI
Source text: as §1
Test [6] has as its target 363 human kinases (including Aurora A/B/C) (Homo sapiens, UniProt Q9Y572). Conditions: RIPK3; for remaining activity at 0.5 µM / remaining activity at 0.1 µM: read-out: % Enzyme Activity (relative to DMSO controls); for remaining activity at 0.1 µM: 100 nM.
Source text: as §1
Test [7] deals with 363 human kinases (including Aurora A/B/C) (Homo sapiens, UniProt O43293). The conditions noted are these: ZIPK/DAPK3; for remaining activity at 0.5 µM / remaining activity at 0.1 µM: read-out: % Enzyme Activity (relative to DMSO controls); for remaining activity at 0.1 µM: 100 nM.
363 human kinases (including Aurora A/B/C) (Homo sapiens, UniProt O43293), sequence (O43293 whole entry): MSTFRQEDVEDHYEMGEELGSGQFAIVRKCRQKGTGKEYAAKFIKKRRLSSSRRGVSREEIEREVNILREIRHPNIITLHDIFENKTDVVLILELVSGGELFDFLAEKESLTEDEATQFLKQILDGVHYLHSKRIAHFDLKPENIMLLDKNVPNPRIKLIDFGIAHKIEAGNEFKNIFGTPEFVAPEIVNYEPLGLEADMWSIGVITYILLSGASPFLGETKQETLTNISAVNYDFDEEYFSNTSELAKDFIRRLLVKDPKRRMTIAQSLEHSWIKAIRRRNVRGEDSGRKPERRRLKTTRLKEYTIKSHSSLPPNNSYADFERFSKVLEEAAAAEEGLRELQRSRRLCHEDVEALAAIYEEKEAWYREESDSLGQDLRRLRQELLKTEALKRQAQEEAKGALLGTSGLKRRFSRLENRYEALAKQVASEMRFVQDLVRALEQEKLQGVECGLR
Source text: as §1
The target of test [8] is T3, 363 human kinases (including Aurora A/B/C) (Homo sapiens, UniProt Q08881).
T3 sequence (Q08881 1-620): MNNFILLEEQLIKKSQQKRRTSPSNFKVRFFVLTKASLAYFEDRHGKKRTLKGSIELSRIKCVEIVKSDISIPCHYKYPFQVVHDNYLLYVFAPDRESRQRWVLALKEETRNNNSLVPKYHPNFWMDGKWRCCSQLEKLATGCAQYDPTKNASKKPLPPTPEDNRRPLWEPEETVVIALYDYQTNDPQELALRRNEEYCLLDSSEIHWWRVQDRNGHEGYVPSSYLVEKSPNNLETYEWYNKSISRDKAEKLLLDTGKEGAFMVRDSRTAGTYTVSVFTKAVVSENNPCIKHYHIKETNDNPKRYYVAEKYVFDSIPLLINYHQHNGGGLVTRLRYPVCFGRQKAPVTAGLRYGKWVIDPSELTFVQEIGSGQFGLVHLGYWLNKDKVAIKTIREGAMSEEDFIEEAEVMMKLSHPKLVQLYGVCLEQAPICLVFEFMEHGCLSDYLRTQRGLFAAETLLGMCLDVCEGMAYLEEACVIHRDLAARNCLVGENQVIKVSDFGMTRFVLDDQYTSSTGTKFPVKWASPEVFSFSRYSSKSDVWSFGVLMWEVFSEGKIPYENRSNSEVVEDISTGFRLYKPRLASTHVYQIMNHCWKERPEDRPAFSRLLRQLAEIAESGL
Conditions: ITK; for remaining activity at 0.5 µM / remaining activity at 0.1 µM: read-out: % Enzyme Activity (relative to DMSO controls); for remaining activity at 0.1 µM: 100 nM.
Source text: as §1

Test [9] has as its target T4, 363 human kinases (including Aurora A/B/C) (Homo sapiens, UniProt Q99986).
T4 sequence (Q99986 1-396): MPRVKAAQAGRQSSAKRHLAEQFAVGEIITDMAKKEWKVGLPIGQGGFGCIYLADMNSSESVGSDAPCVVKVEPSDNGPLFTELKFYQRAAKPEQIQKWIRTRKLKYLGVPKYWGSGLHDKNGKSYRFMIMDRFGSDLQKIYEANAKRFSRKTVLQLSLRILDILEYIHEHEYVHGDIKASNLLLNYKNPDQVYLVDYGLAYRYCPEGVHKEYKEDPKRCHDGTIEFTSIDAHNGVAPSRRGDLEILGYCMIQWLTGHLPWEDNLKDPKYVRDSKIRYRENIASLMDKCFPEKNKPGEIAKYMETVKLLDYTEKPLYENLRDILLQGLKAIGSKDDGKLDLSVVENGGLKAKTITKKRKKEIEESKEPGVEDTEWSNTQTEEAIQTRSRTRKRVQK
The conditions noted are these: VRK1; for remaining activity at 0.5 µM / remaining activity at 0.1 µM: read-out: % Enzyme Activity (relative to DMSO controls); for remaining activity at 0.1 µM: 100 nM.
Source text: as §1

[10] abbreviates: read-out: % Enzyme Activity (relative to DMSO controls).

Read-outs that look alike come from different tables or passages of the source.

363 human kinases (including Aurora A/B/C) (Homo sapiens, UniProt Q9Y572), sequence (Q9Y572 whole entry): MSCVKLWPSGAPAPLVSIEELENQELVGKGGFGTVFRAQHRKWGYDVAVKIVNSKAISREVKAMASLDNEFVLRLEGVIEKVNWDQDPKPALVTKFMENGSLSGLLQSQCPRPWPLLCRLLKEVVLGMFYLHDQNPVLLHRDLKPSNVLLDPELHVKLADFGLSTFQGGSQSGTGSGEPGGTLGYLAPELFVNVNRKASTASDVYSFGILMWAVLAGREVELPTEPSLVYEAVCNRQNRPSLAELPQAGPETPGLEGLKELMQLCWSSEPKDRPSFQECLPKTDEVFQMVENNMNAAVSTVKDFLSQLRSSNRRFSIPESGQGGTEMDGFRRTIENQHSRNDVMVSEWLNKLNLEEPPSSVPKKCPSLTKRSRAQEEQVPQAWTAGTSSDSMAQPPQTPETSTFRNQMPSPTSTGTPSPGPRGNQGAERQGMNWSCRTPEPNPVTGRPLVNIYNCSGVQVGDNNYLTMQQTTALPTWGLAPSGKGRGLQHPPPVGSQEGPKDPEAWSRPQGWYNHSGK
363 human kinases (including Aurora A/B/C) (Homo sapiens, UniProt Q16288), sequence (Q16288 32-839): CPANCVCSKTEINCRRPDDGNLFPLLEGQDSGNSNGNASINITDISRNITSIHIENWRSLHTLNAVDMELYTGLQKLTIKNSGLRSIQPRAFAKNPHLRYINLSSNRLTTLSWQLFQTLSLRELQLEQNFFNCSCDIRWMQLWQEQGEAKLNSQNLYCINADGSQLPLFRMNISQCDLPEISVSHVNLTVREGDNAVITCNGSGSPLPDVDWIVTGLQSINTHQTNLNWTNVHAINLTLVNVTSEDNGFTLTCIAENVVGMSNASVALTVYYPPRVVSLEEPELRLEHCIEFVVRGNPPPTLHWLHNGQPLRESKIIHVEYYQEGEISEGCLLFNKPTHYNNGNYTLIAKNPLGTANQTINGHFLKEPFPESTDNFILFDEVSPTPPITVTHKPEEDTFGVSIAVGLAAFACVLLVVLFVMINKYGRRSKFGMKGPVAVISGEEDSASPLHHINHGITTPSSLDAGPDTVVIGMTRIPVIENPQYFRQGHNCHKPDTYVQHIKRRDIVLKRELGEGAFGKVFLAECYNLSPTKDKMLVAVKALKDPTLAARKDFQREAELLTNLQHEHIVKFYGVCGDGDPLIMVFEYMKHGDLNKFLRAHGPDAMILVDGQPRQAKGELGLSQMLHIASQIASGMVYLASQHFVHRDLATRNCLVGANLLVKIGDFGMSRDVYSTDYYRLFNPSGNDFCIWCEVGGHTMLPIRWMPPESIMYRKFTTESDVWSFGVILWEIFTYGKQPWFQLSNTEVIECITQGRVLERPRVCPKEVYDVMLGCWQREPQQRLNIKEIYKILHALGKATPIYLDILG

In the case of `O=C(c1cccc(Cl)c1F)N1CCN(Cc2cccc(Nc3nccs3)n2)CC1` [MK-8745], the “% Enzyme Activity (relative to DMSO controls)” value came to 3.01% in test [1] (500 nM); 94.49% in [2] (500 nM); 138.31% in test [3] (500 nM); 0.37% in test [4] (Aurora A, 500 nM); 91.67% in test [5] (500 nM); 90.81% in test [6] (500 nM). The entries for the “% Enzyme Activity (relative to DMSO controls)” value in test [7] (500 nM), in test [8] (500 nM) and in [9] (500 nM) were 93.58%, 102.90% and 94.39%, respectively. Besides, the remaining activity at 0.5 µM turned out to be 3.12% in test [1] (500 nM, read-out: % Enzyme Activity (relative to DMSO controls)); 96% in test [2] (500 nM); 147% in test [3] (500 nM); 0.55% in [4] (Aurora A, 500 nM, read-out: % Enzyme Activity (relative to DMSO controls)); 92.5% in [5] (500 nM); 94.8% in [6] (500 nM). The remaining activity at 0.5 µM in test [7] (500 nM) is 95.5%; in test [8] (500 nM), 104%; in [9] (500 nM), 97.3%.
As to `CCn1cc(-c2ccnc3[nH]c(-c4cccc(CN(C)C)c4)cc23)c(-c2ccc(NC(=O)N(C)C)cc2)n1` [GSK1070916], the remaining activity at 0.1 µM in test [1] (setting [10]) is 78.6%; in test [2] it was 106%; in test [3] it was 108%; in test [4] (read-out: % Enzyme Activity (relative to DMSO controls), Aurora A), 25.9%; in [5], 114%; in [6], 88.3%. Moreover, the remaining activity at 0.1 µM turned out to be 91.4% in test [7], 77.7% in test [8] and 89.3% in test [9].
With `O=C(O)[C@]1(Cc2cccc(Nc3nccs3)n2)CC[C@@H](Oc2cccc(Cl)c2F)CC1` [MK-5108], the remaining activity at 0.1 µM in [1] (setting [10]) was found to be 0.99%; in [2], 93.8%; in [3], 82%; in [4] (Aurora A, read-out: % Enzyme Activity (relative to DMSO controls)), 2.38%; in test [5], 68.1%; in [6], 122%. Further, the remaining activity at 0.1 µM came to 97.8% in test [7], 89% in test [8] and 86.9% in test [9]. Also, the remaining activity at 0.5 µM turned out to be 62.2% in test [2] (500 nM); 56.2% in [3] (500 nM); 29.1% in test [5] (500 nM); 87.7% in test [6] (500 nM); 92.6% in test [7] (500 nM); 46.3% in [8] (500 nM). In test [9] (500 nM), the remaining activity at 0.5 µM is 94%.
